target: T1, mutant CFTR (Homo sapiens, UniProt P13569, DEL508-508); assay: Fluorescence (HS-YFP) assay for CFTR activity, corrector assay; type: cell-based; settings: CFBE41o- and FRT cells with stable expression of mutant CFTR, read-out: activity (EC50)
T1 construct: expressed in transfected cells
T1 sequence (P13569 with tags, fused parts or gaps DEL508-508): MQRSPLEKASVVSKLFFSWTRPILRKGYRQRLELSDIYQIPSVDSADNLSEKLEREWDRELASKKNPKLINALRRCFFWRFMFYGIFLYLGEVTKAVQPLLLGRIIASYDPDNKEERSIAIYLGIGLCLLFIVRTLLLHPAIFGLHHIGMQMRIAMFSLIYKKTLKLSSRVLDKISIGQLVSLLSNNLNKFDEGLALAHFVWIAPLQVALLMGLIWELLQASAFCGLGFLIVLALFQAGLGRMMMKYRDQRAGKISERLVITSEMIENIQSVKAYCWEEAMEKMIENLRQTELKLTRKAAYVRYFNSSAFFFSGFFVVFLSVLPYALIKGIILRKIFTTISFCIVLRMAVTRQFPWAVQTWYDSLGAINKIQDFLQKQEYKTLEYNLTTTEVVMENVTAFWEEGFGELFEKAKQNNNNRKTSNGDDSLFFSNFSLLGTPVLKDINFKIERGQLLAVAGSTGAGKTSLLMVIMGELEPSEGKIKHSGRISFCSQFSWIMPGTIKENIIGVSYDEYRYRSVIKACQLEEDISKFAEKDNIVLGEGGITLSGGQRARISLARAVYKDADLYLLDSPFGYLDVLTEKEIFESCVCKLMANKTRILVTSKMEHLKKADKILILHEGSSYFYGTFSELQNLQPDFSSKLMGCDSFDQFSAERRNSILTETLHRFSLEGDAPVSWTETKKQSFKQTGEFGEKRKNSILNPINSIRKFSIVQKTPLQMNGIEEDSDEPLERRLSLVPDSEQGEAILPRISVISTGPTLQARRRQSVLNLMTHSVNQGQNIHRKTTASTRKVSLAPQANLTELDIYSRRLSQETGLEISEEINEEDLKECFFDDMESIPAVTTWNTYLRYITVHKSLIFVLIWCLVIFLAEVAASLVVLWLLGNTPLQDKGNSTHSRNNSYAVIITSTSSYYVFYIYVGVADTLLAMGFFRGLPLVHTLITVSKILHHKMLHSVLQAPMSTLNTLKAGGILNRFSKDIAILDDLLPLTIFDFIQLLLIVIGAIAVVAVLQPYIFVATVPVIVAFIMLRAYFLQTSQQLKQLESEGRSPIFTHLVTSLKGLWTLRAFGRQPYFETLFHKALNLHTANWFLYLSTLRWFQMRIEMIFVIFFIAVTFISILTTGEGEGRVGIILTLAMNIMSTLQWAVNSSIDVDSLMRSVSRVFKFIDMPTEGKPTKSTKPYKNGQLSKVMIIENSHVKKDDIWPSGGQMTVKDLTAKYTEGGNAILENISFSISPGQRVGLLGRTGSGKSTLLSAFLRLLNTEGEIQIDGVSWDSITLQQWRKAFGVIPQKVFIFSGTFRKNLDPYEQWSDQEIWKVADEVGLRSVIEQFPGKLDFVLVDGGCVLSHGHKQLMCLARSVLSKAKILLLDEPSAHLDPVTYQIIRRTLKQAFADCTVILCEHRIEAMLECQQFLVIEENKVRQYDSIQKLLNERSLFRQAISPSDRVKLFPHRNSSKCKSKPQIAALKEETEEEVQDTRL

First: CN1CCc2c(c(C(F)(F)F)nn2-c2cccc(S(=O)(=O)N(C)c3ccc4c(c3)OCO4)c2)C1 [Compound 071, N-(1,3-Benzodioxol-5-yl)-N-methyl-3-[5-methyl-3-(trifluoromethyl)-6,7-dihydro-4H-pyrazolo[4,3-c]pyridin-1-yl]benzenesulfonamide]
Second: CN(C(=O)c1cccc(-n2nc(C(F)(F)F)c3c2CN(C(=O)C(C)(C)C)CC3)c1)c1ccc2c(c1)OCO2 [Compound 072, N-(1,3-Benzodioxol-5-yl)-3-[6-(2,2-dimethylpropanoyl)-3-(trifluoromethyl)-5,7-dihydro-4H-pyrazolo[3,4-c]pyridin-1-yl]-N-methyl-benzamide]
The EC50 of the first is higher: greater than 2000 nM for the first, less than 1000 nM for the second.

First: COC(=O)c1ccc(S(=O)(=O)N2CCc3c(C(F)(F)F)nn(-c4cccc(C(=O)N(C)c5ccc6c(c5)OCO6)c4)c3C2)cc1 [Compound 075, Methyl 4-[[1-[3-[1,3-benzodioxol-5-yl(methyl)carbamoyl]phenyl]-3-(trifluoromethyl)-5,7-dihydro-4H-pyrazolo[3,4-c]pyridin-6-yl]sulfonyl]benzoate]
Second: CN(C(=O)c1cccc(-n2nc(C(F)(F)F)c3c2CN(S(=O)(=O)c2ccc(C(=O)O)cc2)CC3)c1)c1ccc2c(c1)OCO2 [Compound 077, 4-[[1-[3-[1,3-Benzodioxol-5-yl(methyl)carbamoyl]phenyl]-3-(trifluoromethyl)-5,7-dihydro-4H-pyrazolo[3,4-c]pyridin-6-yl]sulfonyl]benzoic acid]
The EC50 of the first is lower: less than 1000 nM for the first, 1000 to 2000 nM for the second. The first is the more potent here.

`Cc1nc2ccc(NC(=O)c3cccc(-n4nc(C(F)(F)F)c5c4CCN(C(=O)C(C)(C)C)C5)c3)cn2n1` [Compound 078, 3-[5-(2,2-Dimethylpropanoyl)-3-(trifluoromethyl)-6,7-dihydro-4Hpyrazolo[4,3-c]pyridin-1-yl]-N-(2-methyl-[1,2,4]triazolo[1,5-a]pyridin-6-yl)benzamide] and `Cc1cn2cc(NC(=O)c3cccc(-n4nc(C(F)(F)F)c5c4CCN(C(=O)C(C)(C)C)C5)c3)ccc2n1` [Compound 084, 3-[5-(2,2-Dimethylpropanoyl)-3-(trifluoromethyl)-6,7-dihydro-4H-pyrazolo[4,3-c]pyridin-1-yl]-N-(2-methylimidazo [1,2-a]pyridin-6-yl)benzamide] cannot be ordered by EC50: greater than 2000 nM for the first, greater than 2000 nM for the second.

`Cc1n[nH]c2ncc(NC(=O)c3cccc(-n4nc(C(F)(F)F)c5c4CCN(C(=O)C(C)(C)C)C5)c3)cc12` [Compound 079, 3-[5-(2,2-Dimethylpropanoyl)-3-(trifluoromethyl)-6,7-dihydro-4Hpyrazolo[4,3-c]pyridin-1-yl]-N-(3-methyl-1H-pyrazolo[3,4-b]pyridin-5-yl)benzamide] and `COc1ncc(NC(=O)c2cccc(-n3nc(C(F)(F)F)c4c3CCN(C(=O)C(C)(C)C)C4)c2)cn1` [Compound 081, 3-[5-(2,2-Dimethylpropanoyl)-3-(trifluoromethyl)-6,7-dihydro-4H-pyrazolo[4,3-c]pyridin-1-yl]-N-(2-methoxypyrimidin-5-yl)benzamide] cannot be ordered by EC50: greater than 2000 nM for the first, greater than 2000 nM for the second.

`COc1ccc(NC(=O)c2cccc(-n3nc(C(F)(F)F)c4c3CCN(C(=O)C(C)(C)C)C4)c2)cn1` [Compound 080, 3-[5-(2,2-Dimethylpropanoyl)-3-(trifluoromethyl)-6,7-dihydro-4Hpyrazolo[4,3-c]pyridin-1-yl]-N-(6-methoxy-3-pyridyl)benzamide] and `COc1cc(NC(=O)c2cccc(-n3nc(C(F)(F)F)c4c3CCN(C(=O)C(C)(C)C)C4)c2)ccn1` [Compound 083, 3-[5-(2,2-Dimethylpropanoyl)-3-(trifluoromethyl)-6,7-dihydro-4Hpyrazolo[4,3-c]pyridin-1-yl]-N-(2-methoxy-4-pyridyl)benzamide] cannot be ordered by EC50: greater than 2000 nM for the first, greater than 2000 nM for the second.

`Cc1nn(CCC(=O)OC(C)(C)C)c(C)c1S(=O)(=O)N1CCc2c(c(C(F)(F)F)nn2-c2cccc(C(=O)N(C)c3ccc4c(c3)OCO4)c2)C1` [Compound 082, tert-Butyl 3-[4-[[1-[3-[1,3-benzodioxol-5-yl(methyl)carbamoyl]phenyl]-3-(trifluoromethyl)-6,7-dihydro-4H-pyrazolo[4,3-c]pyridin-5-yl]sulfonyl]-3,5-dimethyl-pyrazol-1-yl]propanoate] was tested, and the EC50 was less than 1000 nM.
